Measured values as given in patent US10167262B2, “Herbicidal substituted 3-arylpyrazoles” (FMC CORPORATION, priority 2014, dated 2019).

Legend:
Type in all cases: in vivo
[1] = system: wild oat (Avena fatua); assay: Test D postemergence controlled growth environment test, plant response rating 0-100
Excerpt: (§1) Seeds of plant species selected from bluegrass (annual bluegrass, Poa annua), blackgrass (Alopecurus myosuroides), canarygrass (Phalaris minor), chickweed (common chickweed, Stellaria media), galium (catchweed bedstraw, Galium aparine), downy bromegrass (Bromus tectorum), field violet (Viola arvensis), green foxtail (Setaria viridis), deadnettle (henbit deadnettle, Lamium amplexicaule), Italian ryegrass (Lolium multiflorum), kochia (Kochia scoparia), lambsquarters (Chenopodium album), oilseed rape (Brassica napus), pigweed (Amaranthus retroflexus), Russian thistle (Salsola kali), spring barley (Hordeum vulgare), spring wheat (Triticum aestivum), wild buckwheat (Polygonum convolvulus), wild mustard (Sinapis arvensis), wild oat (Avena fatua), windgrass (Apera spica-venti), winter barley (Hordeum vulgare), and winter wheat (Triticum aestivum) were planted in pots containing Redi-Earth® planting medium (Scotts Company, 14111 Scottslawn Road, Marysville, Ohio 43041) comprising spaghnum peat moss, vermiculite, wetting agent and starter nutrients and treated with postemergence applications of test chemicals formulated in a non-phytotoxic solvent mixture which included a surfactant. Plants ranged in height from 2 to 18 cm (1- to 4-leaf stage). Treated plants and controls were maintained in a controlled growth environment for 14 days after which time all species were compared to controls and visually evaluated. Plant response ratings, summarized in Table D, are based on a scale of 0 to 100 where 0 is no effect and 100 is complete control. A dash (-) response means no test result.

[2] = system: spring barley (Hordeum vulgare); assay: as above
Excerpt: as §1

[3] = system: canarygrass (Phalaris minor); assay: as above
Excerpt: as §1

[4] = system: wild buckwheat (Polygonum convolvulus); assay: as above
Excerpt: as §1

[5] = system: chickweed (common chickweed, Stellaria media); assay: as above
Excerpt: as §1

[6] = system: windgrass (Apera spica-venti); assay: as above
Excerpt: as §1

[7] = system: Italian ryegrass (Lolium multiflorum); assay: as above
Excerpt: as §1

[8] = system: downy bromegrass (Bromus tectorum); assay: as above
Excerpt: as §1

[9] = system: winter wheat (Triticum aestivum); assay: as above
Excerpt: as §1

[10] = system: kochia (Kochia scoparia); assay: as above
Excerpt: as §1

[11] = system: bluegrass (annual bluegrass, Poa annua); assay: as above
Excerpt: as §1

[12] = system: spring wheat (Triticum aestivum); assay: as above
Excerpt: as §1

[13] = system: nightshade (eastern black nightshade, Solanum ptycanthum); assay: Test E pre-/postemergence greenhouse test, plant response rating 0-100; conditions: Preemergence, scale 0 to 100
In short: (§2)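 Greenhouse pot assay, two application timings. Pre- to silt loam at planting; post- to 1–4-leaf plants. Visual 0–100 score at 14–21 d.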

[14] = system: cocklebur (common cocklebur, Xanthium strumarium); assay: as above; conditions: Preemergence, scale 0 to 100
In short: as §2

## C#CCn1cc(C(=O)c2ccccc2)c(-c2cc(Cl)cc(Cl)c2)n1 [Compound 39, [3-(3,5-dichlorophenyl)-1-(2-propyn-1-yl)-1H-pyrazol-4-yl]phenylmethanone]
[1]; 16 g ai/ha
  Plant response rating, Oat, Wild: 0
[1]; 31 g ai/ha
  Plant response rating, Oat, Wild: 0
[1]; 62 g ai/ha
  Plant response rating, Oat, Wild: 0
[1]; 125 g ai/ha
  Plant response rating, Oat, Wild: 0
[1]; 250 g ai/ha
  Plant response rating, Oat, Wild: 0
[2]; 16 g ai/ha
  Plant response rating, Barley, Spring: 0
[2]; 31 g ai/ha
  Plant response rating, Barley, Spring: 0
[2]; 62 g ai/ha
  Plant response rating, Barley, Spring: 0
[2]; 125 g ai/ha
  Plant response rating, Barley, Spring: 0
[2]; 250 g ai/ha
  Plant response rating, Barley, Spring: 0
[3]; 16 g ai/ha
  Plant response rating, Canarygrass: 0
[3]; 31 g ai/ha
  Plant response rating, Canarygrass: 0
[3]; 62 g ai/ha
  Plant response rating, Canarygrass: 0
[3]; 125 g ai/ha
  Plant response rating, Canarygrass: 0
[3]; 250 g ai/ha
  Plant response rating, Canarygrass: 0
[4]; 16 g ai/ha
  Plant response rating, Buckwheat, Wild: 0
[4]; 31 g ai/ha
  Plant response rating, Buckwheat, Wild: 0
[4]; 62 g ai/ha
  Plant response rating, Buckwheat, Wild: 0
[4]; 125 g ai/ha
  Plant response rating, Buckwheat, Wild: 10
[4]; 250 g ai/ha
  Plant response rating, Buckwheat, Wild: 20
[5]; 16 g ai/ha
  Plant response rating, Chickweed: 0
[5]; 31 g ai/ha
  Plant response rating, Chickweed: 0
[5]; 62 g ai/ha
  Plant response rating, Chickweed: 10
[5]; 125 g ai/ha
  Plant response rating, Chickweed: 30
[5]; 250 g ai/ha
  Plant response rating, Chickweed: 50
[6]; 16 g ai/ha
  Plant response rating, Windgrass: 0
[6]; 31 g ai/ha
  Plant response rating, Windgrass: 0
[6]; 62 g ai/ha
  Plant response rating, Windgrass: 0
[6]; 125 g ai/ha
  Plant response rating, Windgrass: 0
[6]; 250 g ai/ha
  Plant response rating, Windgrass: 0
[7]; 16 g ai/ha
  Plant response rating, Ryegrass, Italian: 0
[7]; 31 g ai/ha
  Plant response rating, Ryegrass, Italian: 0
[7]; 62 g ai/ha
  Plant response rating, Ryegrass, Italian: 0
[7]; 125 g ai/ha
  Plant response rating, Ryegrass, Italian: 0
[7]; 250 g ai/ha
  Plant response rating, Ryegrass, Italian: 10
[8]; 16 g ai/ha
  Plant response rating, Bromegrass, Downy: 0
[8]; 31 g ai/ha
  Plant response rating, Bromegrass, Downy: 0
[8]; 62 g ai/ha
  Plant response rating, Bromegrass, Downy: 0
[8]; 125 g ai/ha
  Plant response rating, Bromegrass, Downy: 0
[8]; 250 g ai/ha
  Plant response rating, Bromegrass, Downy: 0
[9]; 16 g ai/ha
  Plant response rating, Wheat, Winter: 0
[9]; 31 g ai/ha
  Plant response rating, Wheat, Winter: 0
[9]; 62 g ai/ha
  Plant response rating, Wheat, Winter: 0
[9]; 125 g ai/ha
  Plant response rating, Wheat, Winter: 0
[9]; 250 g ai/ha
  Plant response rating, Wheat, Winter: 0
[10]; 16 g ai/ha
  Plant response rating, Kochia: 0
[10]; 31 g ai/ha
  Plant response rating, Kochia: 0
[10]; 62 g ai/ha
  Plant response rating, Kochia: 20
[10]; 125 g ai/ha
  Plant response rating, Kochia: 10
[10]; 250 g ai/ha
  Plant response rating, Kochia: 20
[11]; 16 g ai/ha
  Plant response rating, Bluegrass: 0
[11]; 31 g ai/ha
  Plant response rating, Bluegrass: 0
[11]; 62 g ai/ha
  Plant response rating, Bluegrass: 0
[11]; 125 g ai/ha
  Plant response rating, Bluegrass: 0
[11]; 250 g ai/ha
  Plant response rating, Bluegrass: 0
[12]; 16 g ai/ha
  Plant response rating, Wheat, Spring: 0
[12]; 31 g ai/ha
  Plant response rating, Wheat, Spring: 0
[12]; 62 g ai/ha
  Plant response rating, Wheat, Spring: 0
[12]; 125 g ai/ha
  Plant response rating, Wheat, Spring: 0
[12]; 250 g ai/ha
  Plant response rating, Wheat, Spring: 0
[13]; 62 g ai/ha
  Nightshade plant response rating: 0
[13]; 125 g ai/ha
  Nightshade plant response rating: 0
[13]; 250 g ai/ha
  Nightshade plant response rating: 100
[13]; 500 g ai/ha
  Nightshade plant response rating: 95

## Clc1cc(Cl)cc(-c2n[nH]cc2C(=NN2CCCC2)c2ccccc2)c1 [Compound 30, N-[[3-(3,5-dichlorophenyl)-1H-pyrazol-4-yl]phenylmethylene]-1-pyrrolidinamine]
[1]; 16 g ai/ha
  Plant response rating, Oat, Wild: 0
[1]; 31 g ai/ha
  Plant response rating, Oat, Wild: 0
[1]; 62 g ai/ha
  Plant response rating, Oat, Wild: 0
[1]; 125 g ai/ha
  Plant response rating, Oat, Wild: 0
[1]; 250 g ai/ha
  Plant response rating, Oat, Wild: 0
[2]; 16 g ai/ha
  Plant response rating, Barley, Spring: 0
[2]; 31 g ai/ha
  Plant response rating, Barley, Spring: 0
[2]; 62 g ai/ha
  Plant response rating, Barley, Spring: 0
[2]; 125 g ai/ha
  Plant response rating, Barley, Spring: 0
[2]; 250 g ai/ha
  Plant response rating, Barley, Spring: 0
[3]; 16 g ai/ha
  Plant response rating, Canarygrass: 0
[3]; 31 g ai/ha
  Plant response rating, Canarygrass: 0
[3]; 62 g ai/ha
  Plant response rating, Canarygrass: 0
[3]; 125 g ai/ha
  Plant response rating, Canarygrass: 0
[3]; 250 g ai/ha
  Plant response rating, Canarygrass: 10
[4]; 16 g ai/ha
  Plant response rating, Buckwheat, Wild: 0
[4]; 31 g ai/ha
  Plant response rating, Buckwheat, Wild: 0
[4]; 62 g ai/ha
  Plant response rating, Buckwheat, Wild: 5
[4]; 125 g ai/ha
  Plant response rating, Buckwheat, Wild: 15
[4]; 250 g ai/ha
  Plant response rating, Buckwheat, Wild: 35
[5]; 16 g ai/ha
  Plant response rating, Chickweed: 0
[5]; 31 g ai/ha
  Plant response rating, Chickweed: 0
[5]; 62 g ai/ha
  Plant response rating, Chickweed: 10
[5]; 125 g ai/ha
  Plant response rating, Chickweed: 40
[5]; 250 g ai/ha
  Plant response rating, Chickweed: 75
[6]; 16 g ai/ha
  Plant response rating, Windgrass: 0
[6]; 31 g ai/ha
  Plant response rating, Windgrass: 0
[6]; 62 g ai/ha
  Plant response rating, Windgrass: 0
[6]; 125 g ai/ha
  Plant response rating, Windgrass: 0
[6]; 250 g ai/ha
  Plant response rating, Windgrass: 0
[7]; 16 g ai/ha
  Plant response rating, Ryegrass, Italian: 0
[7]; 31 g ai/ha
  Plant response rating, Ryegrass, Italian: 0
[7]; 62 g ai/ha
  Plant response rating, Ryegrass, Italian: 0
[7]; 125 g ai/ha
  Plant response rating, Ryegrass, Italian: 0
[7]; 250 g ai/ha
  Plant response rating, Ryegrass, Italian: 10
[8]; 16 g ai/ha
  Plant response rating, Bromegrass, Downy: 0
[8]; 31 g ai/ha
  Plant response rating, Bromegrass, Downy: 0
[8]; 62 g ai/ha
  Plant response rating, Bromegrass, Downy: 0
[8]; 125 g ai/ha
  Plant response rating, Bromegrass, Downy: 0
[8]; 250 g ai/ha
  Plant response rating, Bromegrass, Downy: 0
[9]; 16 g ai/ha
  Plant response rating, Wheat, Winter: 0
[9]; 31 g ai/ha
  Plant response rating, Wheat, Winter: 0
[9]; 62 g ai/ha
  Plant response rating, Wheat, Winter: 0
[9]; 125 g ai/ha
  Plant response rating, Wheat, Winter: 0
[9]; 250 g ai/ha
  Plant response rating, Wheat, Winter: 90
[10]; 16 g ai/ha
  Plant response rating, Kochia: 0
[10]; 31 g ai/ha
  Plant response rating, Kochia: 10
[10]; 62 g ai/ha
  Plant response rating, Kochia: 30
[10]; 125 g ai/ha
  Plant response rating, Kochia: 40
[10]; 250 g ai/ha
  Plant response rating, Kochia: 70
[11]; 16 g ai/ha
  Plant response rating, Bluegrass: 0
[11]; 31 g ai/ha
  Plant response rating, Bluegrass: 0
[11]; 62 g ai/ha
  Plant response rating, Bluegrass: 0
[11]; 125 g ai/ha
  Plant response rating, Bluegrass: 0
[11]; 250 g ai/ha
  Plant response rating, Bluegrass: 0
[12]; 16 g ai/ha
  Plant response rating, Wheat, Spring: 0
[12]; 31 g ai/ha
  Plant response rating, Wheat, Spring: 0
[12]; 62 g ai/ha
  Plant response rating, Wheat, Spring: 0
[12]; 125 g ai/ha
  Plant response rating, Wheat, Spring: 0
[12]; 250 g ai/ha
  Plant response rating, Wheat, Spring: 0

## O=C(c1ccccc1)c1cn(S(=O)(=O)CCl)nc1-c1cc(Cl)cc(Cl)c1 [Compound 1]
[14]; 500 g ai/ha
  Cocklebur plant response rating: 0

## CCn1cc(C(=O)c2ccccc2)c(-c2cc(Cl)cc(Cl)c2)n1 [Compound 31, [3-(3,5-dichlorophenyl)-1-ethyl-1H-pyrazol-4-yl]phenylmethanone]
[13]; 62 g ai/ha
  Nightshade plant response rating: 0
[13]; 125 g ai/ha
  Nightshade plant response rating: 0
[13]; 250 g ai/ha
  Nightshade plant response rating: 0
[13]; 500 g ai/ha
  Nightshade plant response rating: 50

## Cn1cc(C(=O)c2ccccc2)c(-c2cc(Cl)cc(Cl)c2)n1 [Compound 54, [3-(3,5-dichlorophenyl)-1-methyl-1H-pyrazol-4-yl]phenylmethanone]
[13]; 125 g ai/ha
  Nightshade plant response rating: 0
[13]; 250 g ai/ha
  Nightshade plant response rating: 0
[14]; 125 g ai/ha
  Cocklebur plant response rating: 0
[14]; 250 g ai/ha
  Cocklebur plant response rating: 0
